Test results: a compilation of properties of binary mixtures (doi:10.1016/j.jct.2012.02.027)

Experiment: xn = mol fraction of the nth substance listed
Conditions: 101 kPa

O + CC[n+]1ccn(C)c1.N#C[N-]C#N
Conditions	viscosity [mPa·s]
298.15 K, x1 = 1	0.89

CC[n+]1ccn(C)c1.N#C[N-]C#N + O
viscosity [mPa·s]
Conditions	298.15 K	313.15 K	328.15 K	343.15 K
x2 = 0	–	10.07	7.26	–
x2 = 0.1299	12.78	8.71	6.33	4.84
x2 = 0.2248	–	–	5.65	4.34
x2 = 0.3042	–	7.04	5.11	3.94
x2 = 0.4308	–	5.8	4.3	3.33
x2 = 0.5429	6.96	4.81	3.58	2.78
x2 = 0.6534	5.41	3.81	2.84	2.23
x2 = 0.7355	4.41	3.11	2.32	1.8
x2 = 0.7944	–	2.56	–	1.48
x2 = 0.8803	–	–	1.31	1.04
x2 = 0.953	1.47	–	0.82	0.66

O + CC(=O)[O-].CC[n+]1ccn(C)c1
x1 = 1
Conditions	viscosity [mPa·s]
328.15 K	0.51
343.15 K	0.41

CCO + CC[n+]1ccn(C)c1.N#C[N-]C#N
x1 = 1
Conditions	viscosity [mPa·s]
298.15 K	1.09
343.15 K	0.5

CC(=O)[O-].CC[n+]1ccn(C)c1 + O
viscosity [mPa·s]
Conditions	298.15 K	313.15 K	328.15 K	343.15 K
x2 = 0	–	57.7	30.3	18.1
x2 = 0.0992	–	49.5	–	16.46
x2 = 0.222	89.2	42.3	23.49	–
x2 = 0.3233	73	36	20.48	13.21
x2 = 0.4207	–	30.2	–	11.11
x2 = 0.5408	–	–	13.85	–
x2 = 0.6135	–	19.09	11.44	7.48
x2 = 0.6805	28.8	15.63	–	–
x2 = 0.7482	21.9	11.99	7.32	4.87
x2 = 0.8134	15.44	8.51	–	3.57
x2 = 0.9067	6.16	3.74	2.54	1.81

CC[n+]1ccn(C)c1.N#C[N-]C#N + CCO
viscosity [mPa·s]
Conditions	298.15 K	313.15 K	328.15 K	343.15 K
x2 = 0	14.9	–	–	5.48
x2 = 0.102	12.69	8.69	6.32	4.85
x2 = 0.1981	10.8	7.53	5.5	–
x2 = 0.279	9.27	6.58	4.86	3.81
x2 = 0.3596	7.85	–	–	3.37
x2 = 0.4741	6.04	4.45	3.47	2.76
x2 = 0.6028	–	3.31	2.59	2.13
x2 = 0.6867	3.47	2.65	2.09	1.7
x2 = 0.7678	–	2.1	1.67	1.37
x2 = 0.8503	2.08	1.63	1.3	1.1
x2 = 0.9327	1.53	1.19	0.93	0.75

CCO + CC(=O)[O-].CC[n+]1ccn(C)c1
x1 = 1
Conditions	viscosity [mPa·s]
298.15 K	1.09
313.15 K	0.83
328.15 K	0.64
343.15 K	0.5

CC(=O)[O-].CC[n+]1ccn(C)c1 + CCO
viscosity [mPa·s]
Conditions	298.15 K	313.15 K	328.15 K	343.15 K
x2 = 0	132.9	57.7	–	18.1
x2 = 0.1059	92.3	–	24.1	–
x2 = 0.1638	75	36.9	21.14	13.51
x2 = 0.2471	54.2	–	17.22	11.24
x2 = 0.3504	35.2	20.3	12.77	–
x2 = 0.4165	26.5	16.06	10.47	–
x2 = 0.4824	19.82	12.48	8.44	6.05
x2 = 0.5572	14.11	–	6.48	4.76
x2 = 0.6646	8.27	5.79	4.27	3.27
x2 = 0.7494	5.35	–	2.96	2.33
x2 = 0.8666	–	2.02	1.59	1.28
